# Measured values: patent publication US7795253B2, “Condensed imidazole derivatives as aromatase inhibitors” (Novartis AG, priority 2006, dated 2010)
# Biological target: T1, recombinant human Cyp19 enzyme (Homo sapiens, UniProt P11511)
# T1 construct: purchased Becton Dickinson Biosciences, San Jose, Calif., USA
# T1 sequence (P11511 1-503): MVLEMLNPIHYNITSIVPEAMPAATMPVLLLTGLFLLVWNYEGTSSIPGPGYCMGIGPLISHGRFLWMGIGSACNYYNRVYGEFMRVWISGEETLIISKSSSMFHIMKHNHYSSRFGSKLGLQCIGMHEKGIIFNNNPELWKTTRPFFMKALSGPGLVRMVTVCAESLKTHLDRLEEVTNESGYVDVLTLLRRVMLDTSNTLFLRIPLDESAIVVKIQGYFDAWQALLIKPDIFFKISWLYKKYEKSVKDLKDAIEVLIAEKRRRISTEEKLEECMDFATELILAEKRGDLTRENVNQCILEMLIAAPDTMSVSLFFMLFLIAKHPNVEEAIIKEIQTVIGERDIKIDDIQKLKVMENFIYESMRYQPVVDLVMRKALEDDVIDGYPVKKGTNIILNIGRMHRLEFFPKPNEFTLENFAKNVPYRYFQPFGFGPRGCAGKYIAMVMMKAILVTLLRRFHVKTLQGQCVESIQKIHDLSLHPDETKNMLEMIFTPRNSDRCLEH
# Assay: Cyp19/methoxy-4-trifluoromethyl-coumarin (MFC) high throughput inhibition kit
# Format: biochemical
# Details: Cyp19 supersomes, MFC substrate
# Experimental: A compound of formula (I) is to be understood as a compound having a specific configuration around the designated asymmetric carbon atom labelled “*”. If a synthesis method is used which leads to racemic compounds, the racemate resolution is carried out in accordance with conventional methods, such as via a chiral HPLC column. […] The aforementioned activity can, readily and as described below, be determined by using a commercial Cyp19 enzyme inhibition kit, preferably the Cyp19/methoxy-4-trifluoromethyl-coumarin (MFC) high throughput inhibition kit (Becton Dickinson Biosciences, San Jose, Calif., USA) as described hereafter. In the above-mentioned inhibition kit, compounds of the formula (I) show an inhibiting activity which is at least 10 times higher, but preferably 20 times higher, or more preferably 40 times higher, than the substances of the formula (I) with the opposite configuration around the asymmetric carbon atom labelled “*”. A higher inhibiting activity corresponds to a lower IC50 value.
# These effects are demonstrable in in vitro assay tests using cell-free and cellular systems. […] The Cyp19/Methoxy-4-trifluoromethyl-coumarin (MFC) high throughput inhibition kit (Becton Dickinson Biosciences, San Jose, Calif., USA), for example, is designed to screen for potential inhibitors of Cyp19 catalytic activity in a 96-well format. […]
smiles,measurement,value
N#Cc1ccc(C2OCCn3cncc32)cc1 (stereo not shown) [antipode of 1],IC50,2770 nM
